Here are results for eight compounds from US10174032B2, “Heterocyclic compound classes for signaling modulation” (SignalRx Pharmaceuticals, Inc., priority 2014, dated 2019).

Structures are written as SMILES.

Assay [1] deals with PI-3 kinases. The conditions noted are these: cited from earlier work.
In assay [2] the target is BRD4 (Homo sapiens, UniProt O60885). Description: BRD4 inhibition assay of CAL101. The assay is classed as binding. As to conditions: no significant BRD4 inhibition.
Assay [3] concerns the target BET protein BRD4-1 (Homo sapiens, UniProt O60885). The conditions noted are these: S W J Ember 2014; cited from earlier work.
The target in assay [4] is PI3K-alpha (Homo sapiens, UniProt P42336). As to the kind of experiment: Kinase inhibition assay, P-33 labelled ATP phosphate transfer, PI3K-alpha. The class given is biochemical. The conditions noted are these: for inhibition at 0.3 µM: read-out: PI3K-alpha (% Inh at 300 nM). As for the experimental part:
(§1) The assays determined the amount of radioactive phosphate transferred from P-33 labelled ATP to the substrate by the enzyme in the presence of various concentrations of the inhibitor test compounds. […] After this time period the cells were serum starved for 5 hours followed by application of the test compound. Test compound was added as a DMSO (dimethyl sulfoxide) solution such that the final DMSO concentration in the cell media was less than or equal to 0.2% by volume. After 30 minutes of exposure the growth factor stimulant, human IGF-1 (Pepro Tech, Inc., Rocky Hill, N.J., Cat.#100-11), was added in each well. […] A SpectraMax Plus spectrophotometric plate reader (Molecular Devices, Sunnydale, Calif.) was used to measure the optical density signal for pAKT at 450 nm (OD450 nm). The pAKT OD450 nm readings were normalized by total protein amount in the cell lysates determined by standard methods. Concentrations of test compounds required to inhibit IGF stimulated pAKT levels to 50% of maximum levels in PC3 cells (termed DM50 for decreased maximum 50%) were calculated by inputting the dose responses in the software package GraphPad Prism4 (GraphPad Software, Inc., San Diego, Calif.).

In assay [5] the target is PI3K-beta (Homo sapiens, UniProt P42338). Description: Kinase inhibition assay, P-33 labelled ATP phosphate transfer, PI3K-beta. The class given is biochemical. The conditions noted are these: for inhibition at 10 µM: read-out: PI3K-beta(% Inh at 10 μM). On the procedure: as §1
Sequence of PI3K-beta (P42338 whole entry, species assumed): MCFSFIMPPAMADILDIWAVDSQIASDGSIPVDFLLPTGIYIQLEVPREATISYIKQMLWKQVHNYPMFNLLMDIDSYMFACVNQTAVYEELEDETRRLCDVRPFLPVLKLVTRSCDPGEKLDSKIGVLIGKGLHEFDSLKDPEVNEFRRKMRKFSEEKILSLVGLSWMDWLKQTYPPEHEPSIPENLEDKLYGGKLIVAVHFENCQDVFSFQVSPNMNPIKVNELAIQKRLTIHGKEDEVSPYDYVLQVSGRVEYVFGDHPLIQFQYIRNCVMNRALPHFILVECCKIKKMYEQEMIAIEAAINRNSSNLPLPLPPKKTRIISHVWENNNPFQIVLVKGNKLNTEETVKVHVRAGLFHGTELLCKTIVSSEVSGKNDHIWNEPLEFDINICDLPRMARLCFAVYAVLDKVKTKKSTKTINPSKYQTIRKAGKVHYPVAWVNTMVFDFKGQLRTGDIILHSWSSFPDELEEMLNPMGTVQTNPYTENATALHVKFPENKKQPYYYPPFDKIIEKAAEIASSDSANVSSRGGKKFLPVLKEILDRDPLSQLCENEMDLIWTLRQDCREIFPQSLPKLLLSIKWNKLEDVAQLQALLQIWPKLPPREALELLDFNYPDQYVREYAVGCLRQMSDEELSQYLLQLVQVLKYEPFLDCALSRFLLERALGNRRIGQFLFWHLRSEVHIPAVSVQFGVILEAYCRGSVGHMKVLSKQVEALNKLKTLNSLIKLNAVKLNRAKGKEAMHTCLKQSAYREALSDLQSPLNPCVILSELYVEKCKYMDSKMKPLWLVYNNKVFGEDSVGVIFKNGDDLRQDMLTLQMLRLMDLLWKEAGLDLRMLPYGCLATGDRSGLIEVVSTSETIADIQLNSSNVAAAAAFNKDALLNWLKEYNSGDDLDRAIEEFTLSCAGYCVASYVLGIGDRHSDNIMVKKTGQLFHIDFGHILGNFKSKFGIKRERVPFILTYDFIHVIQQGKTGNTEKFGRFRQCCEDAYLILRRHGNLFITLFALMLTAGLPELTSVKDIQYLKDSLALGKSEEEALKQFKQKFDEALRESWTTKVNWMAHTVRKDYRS
Sequence of PI3K-beta (P27986 whole entry partner, species assumed): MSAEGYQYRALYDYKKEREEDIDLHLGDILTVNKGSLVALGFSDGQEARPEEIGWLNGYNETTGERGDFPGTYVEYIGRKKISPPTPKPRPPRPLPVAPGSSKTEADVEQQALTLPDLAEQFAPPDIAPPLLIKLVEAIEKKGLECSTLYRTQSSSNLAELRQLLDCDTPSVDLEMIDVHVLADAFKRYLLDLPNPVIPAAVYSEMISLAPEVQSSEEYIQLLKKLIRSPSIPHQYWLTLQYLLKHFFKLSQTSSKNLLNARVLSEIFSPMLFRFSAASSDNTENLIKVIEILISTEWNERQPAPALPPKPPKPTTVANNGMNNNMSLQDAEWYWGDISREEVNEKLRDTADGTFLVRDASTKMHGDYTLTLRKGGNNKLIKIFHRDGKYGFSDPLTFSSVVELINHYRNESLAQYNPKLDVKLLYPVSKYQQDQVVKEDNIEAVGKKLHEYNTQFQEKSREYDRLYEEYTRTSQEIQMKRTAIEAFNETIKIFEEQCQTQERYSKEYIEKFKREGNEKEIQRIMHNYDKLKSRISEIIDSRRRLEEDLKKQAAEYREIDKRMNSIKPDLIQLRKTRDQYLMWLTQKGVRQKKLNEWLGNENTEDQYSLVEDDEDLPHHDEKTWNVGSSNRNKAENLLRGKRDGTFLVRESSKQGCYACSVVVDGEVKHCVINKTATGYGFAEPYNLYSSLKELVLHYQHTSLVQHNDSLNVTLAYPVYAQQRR
Assay [6] addresses PI3K-delta (Homo sapiens, UniProt O00329). As to the kind of experiment: Kinase inhibition assay, P-33 labelled ATP phosphate transfer, PI3K-delta. The class given is biochemical. As to conditions: for inhibition at 10 µM: read-out: PI3K-delta(% Inh at 10 μM). On the procedure:
as §1

Assay [7] concerns the target PI3K-gamma (Homo sapiens, UniProt P48736). Description: Kinase inhibition assay, P-33 labelled ATP phosphate transfer, PI3K-gamma. The class given is biochemical. As to conditions: for inhibition at 10 µM: read-out: PI3K-gamma(% Inh at 10 μM). On the procedure: as §1
Assay [8] addresses mTOR (Homo sapiens, UniProt P42345). As to the kind of experiment: Kinase inhibition assay, P-33 labelled ATP phosphate transfer, mTOR. The assay is classed as biochemical. The conditions noted are these: for inhibition at 10 µM: read-out: mTOR(% Inh at 10 μM); for inhibition at 0.3 µM: read-out: mTOR(% Inh at 300 nM). On the procedure:
as §1

Assay [9] addresses PLK-1 (Homo sapiens, UniProt P53350). As to the kind of experiment: Kinase inhibition assay, P-33 labelled ATP phosphate transfer, PLK-1. The assay is classed as biochemical. As for the experimental part: as §1
For assay [10], the target named is PIM-1 (Homo sapiens, UniProt P11309). As to the kind of experiment: Kinase inhibition assay, P-33 labelled ATP phosphate transfer, PIM-1. The class given is biochemical. The conditions noted are these: for inhibition at 10 µM: read-out: PIM-1(% Inh at 10 μM). On the procedure:
as §1

Assay [11] concerns the target DNA-PK (Homo sapiens, UniProt P78527). As to the kind of experiment: Kinase inhibition assay, P-33 labelled ATP phosphate transfer, DNA-PK. The assay is classed as biochemical. As for the experimental part:
as §1

The subject of assay [12] is PC3 cells. As to the kind of experiment: PC3 cell proliferation (WST, 72 hours). The assay is classed as cell-based. The conditions noted are these: Homo sapiens, PC-3; PC3 cells, 72 hours, WST; read-out: PC3 cell proliferation(IC50 μM). As for the experimental part: The PC3 cell proliferation data in column 26 of Table 5 was obtained as follows: PC3 cells were obtained from the American Type Culture Collection (ATCC, Manassas, Va., Cat.#CRL-1435). Two thousand cells from the prostate cancer line PC3 were placed in 50 μL of complete RPMI 1640 media (Invitrogen, Carlsbad, Calif., Cat.#22400-105) with 10% fetal bovine serum, (Invitrogen, Carlsbad, Calif., Cat.#10438-026) into each well of 96-well cell culture plates in a hexaplicate sampling pattern. A 50 μL aliquot of test compound (prepared from stock test compounds in DMSO diluted into media) was added to the appropriate well such that the final concentrations of test compound were 200, 40, 8, 1.6, 0.32, 0.064, 0.0128, 0.00256, and 0 μM and the final DMSO concentration was less than or equal to 0.2% . The plates were incubated for 72 hours 37° C. in an atmosphere of 5% CO2. At the end of this time a 10 μL aliquot of WST solution (Roche Applied Science, Mannheim, Germany) was added into each of the wells. Cells were exposed to the WST solution for 4 hours. A SpectraMax Plus spectrophotometric plate reader (Molecular Devices, Sunnydale, Calif.) was then used to measure the optical density at 450 nm (OD450 nm). Sigmoidal curves were drawn for the dose responses and IC50 values were calculated using the software package GraphPad Prism4 (GraphPad Software, Inc., San Diego, Calif.).

The test system of assay [13] is pAKT serine 473 in PC3 cells. Description: IGF-1 stimulated pAKT serine 473 level in PC3 cells (sandwich ELISA). The assay is classed as cell-based. As to conditions: Homo sapiens, PC-3, 0.5 h, 30 minutes compound exposure, termed DM50 in text. As for the experimental part: as §1

Sequence of PIM-1 (P11309 whole entry, species assumed): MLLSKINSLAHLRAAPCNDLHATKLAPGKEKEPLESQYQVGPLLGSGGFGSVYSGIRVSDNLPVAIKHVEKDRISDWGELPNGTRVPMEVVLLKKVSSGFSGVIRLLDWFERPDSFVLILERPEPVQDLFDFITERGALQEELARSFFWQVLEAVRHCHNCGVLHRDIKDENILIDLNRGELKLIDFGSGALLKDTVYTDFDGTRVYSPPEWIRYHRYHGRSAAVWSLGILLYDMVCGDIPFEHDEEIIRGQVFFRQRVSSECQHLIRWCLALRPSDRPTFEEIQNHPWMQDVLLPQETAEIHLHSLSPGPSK
Sequence of PI3K-delta (O00329 whole entry, species assumed): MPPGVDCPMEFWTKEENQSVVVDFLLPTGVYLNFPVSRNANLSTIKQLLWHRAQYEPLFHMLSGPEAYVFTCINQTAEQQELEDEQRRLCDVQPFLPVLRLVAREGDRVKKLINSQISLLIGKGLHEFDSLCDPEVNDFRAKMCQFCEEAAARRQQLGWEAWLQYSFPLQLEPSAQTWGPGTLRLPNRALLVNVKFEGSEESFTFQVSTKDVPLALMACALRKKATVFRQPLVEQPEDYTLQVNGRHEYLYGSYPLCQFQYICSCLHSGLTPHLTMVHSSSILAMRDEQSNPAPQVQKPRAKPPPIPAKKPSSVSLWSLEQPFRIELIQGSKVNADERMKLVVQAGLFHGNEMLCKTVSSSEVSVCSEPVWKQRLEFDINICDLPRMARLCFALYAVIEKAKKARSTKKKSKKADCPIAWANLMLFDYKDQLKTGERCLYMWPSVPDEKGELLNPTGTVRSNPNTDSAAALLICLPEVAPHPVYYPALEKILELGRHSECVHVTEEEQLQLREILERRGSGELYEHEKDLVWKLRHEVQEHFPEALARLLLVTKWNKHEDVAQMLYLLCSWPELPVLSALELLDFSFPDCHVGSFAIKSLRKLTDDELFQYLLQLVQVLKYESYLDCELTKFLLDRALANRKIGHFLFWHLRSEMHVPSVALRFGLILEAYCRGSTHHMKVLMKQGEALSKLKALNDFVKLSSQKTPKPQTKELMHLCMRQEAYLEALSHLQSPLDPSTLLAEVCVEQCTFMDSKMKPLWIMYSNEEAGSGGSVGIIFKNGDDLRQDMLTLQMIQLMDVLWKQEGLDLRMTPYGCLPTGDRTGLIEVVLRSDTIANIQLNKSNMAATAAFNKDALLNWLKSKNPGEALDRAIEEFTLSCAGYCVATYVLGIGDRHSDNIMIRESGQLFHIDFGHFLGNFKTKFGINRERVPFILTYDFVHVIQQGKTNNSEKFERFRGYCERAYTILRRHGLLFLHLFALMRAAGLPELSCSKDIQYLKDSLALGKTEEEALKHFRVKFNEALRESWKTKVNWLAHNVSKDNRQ
Sequence of PI3K-delta (P27986 whole entry partner, species assumed): as the sequence (P27986 whole entry partner, species assumed) above
Sequence of PI3K-alpha (P42336 whole entry, species assumed): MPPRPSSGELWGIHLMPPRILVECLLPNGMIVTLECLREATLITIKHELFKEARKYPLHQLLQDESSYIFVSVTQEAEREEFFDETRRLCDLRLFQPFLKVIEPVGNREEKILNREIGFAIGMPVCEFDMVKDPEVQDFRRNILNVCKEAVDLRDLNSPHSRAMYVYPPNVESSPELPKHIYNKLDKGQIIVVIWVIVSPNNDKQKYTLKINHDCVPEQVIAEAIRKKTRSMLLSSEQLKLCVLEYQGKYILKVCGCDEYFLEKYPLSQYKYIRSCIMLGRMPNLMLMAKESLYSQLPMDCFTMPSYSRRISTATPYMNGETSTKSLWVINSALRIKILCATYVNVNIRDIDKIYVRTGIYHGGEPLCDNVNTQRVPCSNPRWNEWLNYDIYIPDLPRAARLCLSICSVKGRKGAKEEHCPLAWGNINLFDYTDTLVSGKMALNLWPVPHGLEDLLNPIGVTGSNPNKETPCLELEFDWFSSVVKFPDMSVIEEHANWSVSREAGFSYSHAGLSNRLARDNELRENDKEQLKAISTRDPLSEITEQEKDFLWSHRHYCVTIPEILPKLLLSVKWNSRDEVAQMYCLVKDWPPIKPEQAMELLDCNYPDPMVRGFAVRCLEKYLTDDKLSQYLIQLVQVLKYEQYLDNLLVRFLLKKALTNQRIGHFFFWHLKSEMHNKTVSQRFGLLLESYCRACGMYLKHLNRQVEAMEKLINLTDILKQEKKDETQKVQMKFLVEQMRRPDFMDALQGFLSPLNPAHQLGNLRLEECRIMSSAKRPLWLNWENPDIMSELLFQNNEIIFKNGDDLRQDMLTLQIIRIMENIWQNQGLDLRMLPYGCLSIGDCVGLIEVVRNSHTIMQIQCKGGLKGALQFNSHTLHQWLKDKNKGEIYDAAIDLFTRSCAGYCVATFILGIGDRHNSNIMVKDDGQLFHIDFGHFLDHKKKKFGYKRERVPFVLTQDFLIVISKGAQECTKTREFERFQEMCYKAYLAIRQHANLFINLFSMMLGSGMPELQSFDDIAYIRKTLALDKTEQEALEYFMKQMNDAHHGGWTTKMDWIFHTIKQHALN
Sequence of PI3K-alpha (P27986 whole entry partner, species assumed): as the sequence (P27986 whole entry partner, species assumed) above
Sequence of PLK-1 (P53350 whole entry, species assumed): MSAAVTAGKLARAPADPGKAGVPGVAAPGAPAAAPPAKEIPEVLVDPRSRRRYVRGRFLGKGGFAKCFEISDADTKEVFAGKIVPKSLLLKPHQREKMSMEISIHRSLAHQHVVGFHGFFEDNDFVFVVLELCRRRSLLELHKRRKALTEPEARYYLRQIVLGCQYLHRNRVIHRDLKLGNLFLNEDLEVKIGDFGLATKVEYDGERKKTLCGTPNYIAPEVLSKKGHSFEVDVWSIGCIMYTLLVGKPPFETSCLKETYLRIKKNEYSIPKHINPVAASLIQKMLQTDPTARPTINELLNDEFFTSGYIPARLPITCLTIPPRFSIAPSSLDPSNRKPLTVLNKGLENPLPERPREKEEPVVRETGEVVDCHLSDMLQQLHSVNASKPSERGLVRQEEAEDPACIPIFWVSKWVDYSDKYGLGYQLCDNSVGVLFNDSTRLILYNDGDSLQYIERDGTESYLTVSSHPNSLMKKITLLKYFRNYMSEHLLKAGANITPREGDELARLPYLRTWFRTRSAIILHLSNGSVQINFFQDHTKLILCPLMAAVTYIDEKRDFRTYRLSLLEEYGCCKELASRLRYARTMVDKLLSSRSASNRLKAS

`O=c1cc(N2CCOCC2)oc2c(-c3ccccc3)cccc12` [LY294002, 2-(4-morpholinyl)-8-phenyl-4H-1-benzopyran-4-one]: the IC50 in assay [1] (C. J. Vlahos et al. 1994) was 1.4 µM.
In the case of `CC[C@H](Nc1ncnc2[nH]cnc12)c1nc2cccc(F)c2c(=O)n1-c1ccccc1` [CAL101], the IC50 in [2] is more than 50 µM.
For the compound `Cc1cnc(Nc2ccc(N3CCN(C)CC3)cc2)nc1Nc1cccc(S(=O)(=O)NC(C)(C)C)c1` [TG101209], the “inhibition of BET protein BRD4-1” value in assay [3] was “potently inhibit”.
In the case of `CCOC(=O)Cn1ncc2c(=O)nc(N3CCOCC3)[nH]c21` [Compound 24], the inhibition at 0.3 µM in assay [4] is 6.6%. In addition, the inhibition at 10 µM amounted to 22% in [5]; 7.2% in assay [6]; 14% in assay [7]; 0% in assay [8]; 7.5% in [9] (read-out: PLK-1(% Inh at 10 μM)); 0.9% in assay [10]. Further, the IC50 was determined as 24 µM in assay [11] and 1.4 µM in assay [12].
Turning to `O=c1nc(N2CCOCC2)[nH]c2c1cnn2-c1ccccc1` [Compound 22], the inhibition at 0.3 µM worked out at 14% in [4] and 42% in assay [8]. In addition, the results for the inhibition at 10 µM in [6], in [7] and in assay [10] were 20%, 8% and 45%, respectively. In addition, the IC50 in assay [12] came to 263 µM.
With `O=c1nc(N2CCOCC2)[nH]c2c1cnn2-c1ccc2c(c1)OCCO2` [Compound 27], in [4], the inhibition at 0.3 µM is 30%. The inhibition at 10 µM in assay [5] is 12%; in assay [6], 50%; in assay [7], 48%; in assay [8], 4.4%. The IC50 in assay [10] was 1 µM; in assay [11], 24 µM; in [12], 149 µM.
`O=c1nc(N2CCOCC2)oc2c(-c3ccccc3)csc12` [Compound 3, 2-morpholino-7-phenyl-4H-thieno[2,3-e][1,3]oxazin-4-one]: the IC50 in assay [4] was 1.4 µM; in assay [5], 10 µM; in assay [6] it was 1.5 µM; in assay [7], 5.5 µM; in assay [9], 2.3 µM; in [13], 11 µM. Besides, the IC50 in [12] is 28 µM. Also, in [8], the inhibition at 0.3 µM stood at 4%.
`O=c1cc(N2CCNCC2)oc2c(-c3ccccc3)cccc12` [LY303511]: the PI3K inhibition activity entry in assay [1] (C. Vlahos et al. 1994) was “lose all PI3K inhibition activity”.
